Broadly, the DC50 is the concentration giving 50% degradation.

Some results are limits rather than exact numbers.

For one assay, the target named is T1, ER (Homo sapiens, UniProt P03372).
T1 construct: host or cells: T47D and MCF7 human breast cancer cells
T1 sequence (P03372 1-595): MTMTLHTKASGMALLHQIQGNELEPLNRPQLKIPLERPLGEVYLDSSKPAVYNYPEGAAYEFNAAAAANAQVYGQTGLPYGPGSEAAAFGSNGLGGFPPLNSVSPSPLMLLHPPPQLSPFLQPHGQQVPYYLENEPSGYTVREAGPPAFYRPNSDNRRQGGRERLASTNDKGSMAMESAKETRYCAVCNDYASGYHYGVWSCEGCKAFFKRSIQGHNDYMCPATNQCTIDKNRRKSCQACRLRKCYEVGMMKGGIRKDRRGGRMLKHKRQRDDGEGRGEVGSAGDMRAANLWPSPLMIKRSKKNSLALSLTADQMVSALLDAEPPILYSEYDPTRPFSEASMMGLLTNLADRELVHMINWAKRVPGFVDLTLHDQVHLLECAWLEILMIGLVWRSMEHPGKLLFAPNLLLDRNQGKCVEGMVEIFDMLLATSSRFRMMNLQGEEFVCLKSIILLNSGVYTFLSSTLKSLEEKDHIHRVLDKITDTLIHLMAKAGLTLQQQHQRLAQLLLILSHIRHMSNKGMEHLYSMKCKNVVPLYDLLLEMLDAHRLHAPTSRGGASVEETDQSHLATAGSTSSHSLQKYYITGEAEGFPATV
Put plainly: ER degradation activity, in-cell western blot analysis in T47D cells. In kind it is cell-based. The conditions noted are these: 16 hours, Table A does not say which cell line (T47D or MCF7), read-out: Potency (DC50). Put shortly: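 ER protein remaining after 16 h compound exposure is quantified in T47D cells by in-cell western, with a no-primary-antibody background control. Values are percentages of DMSO-treated signal.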
Regarding `C[C@@H]1Cc2c([nH]c3ccccc23)[C@@H](c2c(F)cc(N3CCC(C(=O)N4CC(N5Cc6cc7c(cc6C5)C(=O)N(C5CCC(=O)NC5=O)C7=O)C4)CC3)cc2F)N1CC(F)F` (stereo partly drawn) [E 235, 6-(1-(1-(4-((1R,3R)-2-(2,2-difluoroethyl)-3-methyl-2,3,4,9-tetrahydro-1H-pyrido[3,4-b]indol-1-yl)-3,5-difluorophenyl)piperidine-4-carbonyl)azetidin-3-yl)-2-(2,6-dioxopiperidin-3-yl)-6,7-dihydropyrrolo[3,4-f]isoindole-1,3(2H,5H)-dione], the DC50 was over 100 nM.

Regarding `O=C1CCC(N2C(=O)c3cc4c(cc3C2=O)CN(CC(=O)N2CCC3(CC2)CCN(c2ncc([C@@H]5c6ccc(O)cc6CC[C@@H]5c5ccccc5)cn2)CC3)C4)C(=O)N1` (mixture of isomers) [E 298, Rac-2-(2,6-dioxopiperidin-3-yl)-6-(2-(9-(5-((1S,2S)-6-hydroxy-2-phenyl-1,2,3,4-tetrahydronaphthalen-1-yl)pyrimidin-2-yl)-3,9-diazaspiro[5.5]undecan-3-yl)-2-oxoethyl)-6,7-dihydropyrrolo[3,4-f]isoindole-1,3(2H,5H)-dione], the half-maximal degradation concentration (DC50) is over 100 nM.

As to `C[C@@H]1Cc2c([nH]c3ccccc23)[C@@H](c2c(F)cc(N3CC4(CCN(CC(=O)N5Cc6cc7c(cc6C5)C(=O)N(C5CCC(=O)NC5=O)C7=O)C4)C3)cc2F)N1CC(F)F` (stereo partly drawn) [E 74, 6-(2-(2-(4-((1R,3R)-2-(2,2-difluoroethyl)-3-methyl-2,3,4,9-tetrahydro-1H-pyrido[3,4-b]indol-1-yl)-3,5-difluorophenyl)-2,6-diazaspiro[3.4]octan-6-yl)acetyl)-2-(2,6-dioxopiperidin-3-yl)-6,7-dihydropyrrolo[3,4-f]isoindole-1,3(2H,5H)-dione], the half-maximal degradation concentration (DC50) lay within 10 to 100 nM.

On to `C[C@@H]1Cc2cc(O)ccc2[C@@H](c2c(F)cc(N3CC4(CCN(C(=O)CN5Cc6cc7c(cc6C5)C(=O)N(C5CCC(=O)NC5=O)C7)C4)C3)cc2F)N1CC(F)F` (stereo partly drawn) [E 36, 3-(6-(2-(2-(4-((1S,3R)-2-(2,2-difluoroethyl)-6-hydroxy-3-methyl-1,2,3,4-tetrahydroisoquinolin-1-yl)-3,5-difluorophenyl)-2,6-diazaspiro[3.4]octan-6-yl)-2-oxoethyl)-1-oxo-3,5,6,7-tetrahydropyrrolo[3,4-f]isoindol-2(1H)-yl)piperidine-2,6-dione], for which the half-maximal degradation concentration (DC50) is under 10 nM.

In the case of `O=C1CCC(N2C(=O)c3cc4c(cc3C2=O)CN(CC2CN(CC3CN(c5ccc([C@@H]6c7ccc(O)cc7CC[C@@H]6c6ccc(F)cc6)cc5)C3)C2)C4)C(=O)N1` (stereo partly drawn) [E 278, 2-(2,6-dioxopiperidin-3-yl)-6-((1-((1-(4-((1R,2S)-2-(4-fluorophenyl)-6-hydroxy-1,2,3,4-tetrahydronaphthalen-1-yl)phenyl)azetidin-3-yl)methyl)azetidin-3-yl)methyl)-6,7-dihydropyrrolo[3,4-f]isoindole-1,3(2H,5H)-dione], the DC50 was over 100 nM.

With `C[C@@H]1Cc2c([nH]c3ccccc23)[C@@H](c2c(F)cc(N3CC4(CCN(C(=O)CN5Cc6cc7c(cc6C5)C(=O)N(C5CCC(=O)NC5=O)C7=O)C4)C3)cc2F)N1CC(F)F` (stereo partly drawn) [E 77, 6-(2-(2-(4-((1R,3R)-2-(2,2-difluoroethyl)-3-methyl-2,3,4,9-tetrahydro-1H-pyrido[3,4-b]indol-1-yl)-3,5-difluorophenyl)-2,6-diazaspiro[3.4]octan-6-yl)-2-oxoethyl)-2-(2,6-dioxopiperidin-3-yl)-6,7-dihydropyrrolo[3,4-f]isoindole-1,3(2H,5H)-dione], the DC50 was under 10 nM.

In the case of `O=C1CCC(N2C(=O)c3cc4c(cc3C2=O)CN(C(=O)CN2CCC3(CC2)CCN(c2ccc(C(=C(CCCl)c5ccccc5)c5ccc(O)cc5)cc2)CC3)C4)C(=O)N1` (stereo not drawn) [E 195, 6-(2-(9-(4-(4-chloro-1-(4-hydroxyphenyl)-2-phenylbut-1-en-1-yl)phenyl)-3,9-diazaspiro[5.5]undecan-3-yl)acetyl)-2-(2,6-dioxopiperidin-3-yl)-6,7-dihydropyrrolo[3,4-f]isoindole-1,3(2H,5H)-dione], the DC50 fell in the range of 10 to 100 nM.

For `C[C@@H]1Cc2c([nH]c3ccccc23)[C@@H](c2c(F)cc(C3CCC(CN4CCC(N5Cc6cc7c(cc6C5)C(=O)N(C5CCC(=O)NC5=O)C7=O)CC4)CC3)cc2F)N1CC(F)F` (stereo partly drawn) [E 282, 6-(1-((4-(4-((1R,3R)-2-(2,2-difluoroethyl)-3-methyl-2,3,4,9-tetrahydro-1H-pyrido[3,4-b]indol-1-yl)-3,5-difluorophenyl)cyclohexyl)methyl)piperidin-4-yl)-2-(2,6-dioxopiperidin-3-yl)-6,7-dihydropyrrolo[3,4-f]isoindole-1,3(2H,5H)-dione], the DC50 is over 100 nM.

With `C[C@@H]1Cc2cc(O)ccc2[C@@H](c2c(F)cc(N3CCC4(CN(C(=O)CN5Cc6cc7c(cc6C5)C(=O)N(C5CCC(=O)NC5=O)C7=O)C4)C3)cc2F)N1CC(F)F` (stereo partly drawn) [E 44, 6-(2-(6-(4-((1S,3R)-2-(2,2-difluoroethyl)-6-hydroxy-3-methyl-1,2,3,4-tetrahydroisoquinolin-1-yl)-3,5-difluorophenyl)-2,6-diazaspiro[3.4]octan-2-yl)-2-oxoethyl)-2-(2,6-dioxopiperidin-3-yl)-6,7-dihydropyrrolo[3,4-f]isoindole-1,3(2H,5H)-dione], the 50% degradation concentration (DC50) was in the range of 10 to 100 nM.

With `O=C1CCC(N2C(=O)c3cc4c(cc3C2=O)CN(C(=O)c2ccc(CC(=O)N3CCCC(Oc5ccc([C@@H]6c7ccc(O)cc7CC[C@@H]6c6ccccc6)cc5)C3)cc2)C4)C(=O)N1` (mixture of isomers) [E 24, Rac-2-(2,6-dioxopiperidin-3-yl)-6-(4-(2-(3-(4-((1R,2S)-6-hydroxy-2-phenyl-1,2,3,4-tetrahydronaphthalen-1-yl)phenoxy)piperidin-1-yl)-2-oxoethyl)benzoyl)-6,7-dihydropyrrolo[3,4-f]isoindole-1,3(2H,5H)-dione], the half-maximal degradation concentration (DC50) lay in the range of 10 to 100 nM.

Regarding `O=C1CCC(N2C(=O)c3cc4c(cc3C2=O)CN(C(=O)CN2CC3(CCN(c5ccc([C@@H]6c7ccc(O)cc7CC[C@@H]6c6ccc(F)cc6)cc5)CC3)C2)C4)C(=O)N1` (mixture of isomers) [E 127, 2-(2,6-dioxopiperidin-3-yl)-6-(2-(7-(4-((1R,2S)-2-(4-fluorophenyl)-6-hydroxy-1,2,3,4-tetrahydronaphthalen-1-yl)phenyl)-2,7-diazaspiro[3.5]nonan-2-yl)acetyl)-6,7-dihydropyrrolo[3,4-f]isoindole-1,3(2H,5H)-dione], the 50% degradation concentration (DC50) was in the range of 10 to 100 nM.

Take `O=C1CCC(N2Cc3cc4c(cc3C2=O)CN(CC(=O)N2CCC3(C2)CN(c2ccc([C@@H]5c6ccc(O)cc6CC[C@@H]5c5ccccc5)cc2)C3)C4)C(=O)N1` (mixture of isomers) [E 6, rac-3-(6-(2-(2-(4-((1R,2S)-6-hydroxy-2-phenyl-1,2,3,4-tetrahydronaphthalen-1-yl)phenyl)-2,6-diazaspiro[3.4]octan-6-yl)-2-oxoethyl)-1-oxo-3,5,6,7-tetrahydropyrrolo[3,4-f]isoindol-2(1H)-yl)piperidine-2,6-dione]: the half-maximal degradation concentration (DC50) was under 10 nM.

Regarding `C[C@@H]1Cc2c([nH]c3ccccc23)[C@@H](c2c(F)cc(N3CCC4(CCN(C(=O)CN5Cc6cc7c(cc6C5)C(=O)N(C5CCC(=O)NC5=O)C7=O)C4)C3)cc2F)N1CC(F)F` (stereo partly drawn) [E 79, 6-(2-(7-(4-((1R,3R)-2-(2,2-difluoroethyl)-3-methyl-2,3,4,9-tetrahydro-1H-pyrido[3,4-b]indol-1-yl)-3,5-difluorophenyl)-2,7-diazaspiro[4.4]nonan-2-yl)-2-oxoethyl)-2-(2,6-dioxopiperidin-3-yl)-6,7-dihydropyrrolo[3,4-f]isoindole-1,3(2H,5H)-dione], the DC50 was 10 to 100 nM.

The same assay, now with this note: compounds 16 hours, Table A does not say whether T47D or MCF7, read-out: Potency (DC50).
Take `C[C@@H]1Cc2cc(O)ccc2[C@@H](c2ccc(C(=O)N3CC4(CCN(C(=O)CN5Cc6cc7c(cc6C5)C(=O)N(C5CCC(=O)NC5=O)C7=O)CC4)C3)cc2)N1CC(F)F` (stereo partly drawn) [E 459, 6-(2-(2-(4-((1R,3R)-2-(2,2-difluoroethyl)-6-hydroxy-3-methyl-1,2,3,4-tetrahydroisoquinolin-1-yl)benzoyl)-2,7-diazaspiro[3.5]nonan-7-yl)-2-oxoethyl)-2-(2,6-dioxopiperidin-3-yl)-6,7-dihydropyrrolo[3,4-f]isoindole-1,3(2H,5H)-dione]: the half-maximal degradation concentration (DC50) is under 10 nM.

As to `O=C1CCC(N2C(=O)c3cc4c(cc3C2=O)CN(C2CCN(C(=O)[C@H]3C[C@@H](Oc5ccc([C@@H]6c7ccc(O)cc7CC[C@@H]6c6ccccc6)cc5)C3)CC2)C4)C(=O)N1` (mixture of isomers) [E 490, 2-(2,6-dioxopiperidin-3-yl)-6-(1-((1SR,3SR)-3-(4-((1R,2S)-6-hydroxy-2-phenyl-1,2,3,4-tetrahydronaphthalen-1-yl)phenoxy)cyclobutane-1-carbonyl)piperidin-4-yl)-6,7-dihydropyrrolo[3,4-f]isoindole-1,3(2H,5H)-dione], the 50% degradation concentration (DC50) was in the range of 10 to 100 nM.

For the origin of these results see patent US20240190880A1 (THE REGENTS OF THE UNIVERSITY OF MICHIGAN, priority 2021, published 2024).
